Here are results for 70 compounds from ChEMBL document CHEMBL1681638, “Synthesis of GN8 derivatives and evaluation of their antiprion activity in TSE-infected cells” (Bioorg Med Chem Lett, 2011).

For one series, the system named is GT1-7. The experiment in a line: Antiprion activity in human transmissible spongiform encephalopathies agent Fukuoka-1 prion infected GT1-7 cells assessed as proteinase K-resistant proteins at 10 uM after 3 days Western blotting analysis relative to control. The series is classed as cell-based. Background: A western blot detects proteins with antibodies after separation by electrophoresis.

Series [1] is filed under the species Mus musculus. The experiment in a line: Effect on PrPc expression level in mouse GT1-7 at 10 uM after 3 days by Western blot method.
Series [2] can be described thus: Antiprion activity in human transmissible spongiform encephalopathies agent Fukuoka-1 prion infected GT1-7 cells assessed as proteinase K-resistant proteins after 3 days Western blotting analysis. The series is classed as cell-based. The conditions noted are these: GT1-7, 72 h.
Series [3] is filed under the species Mus musculus. The experiment in a line: Binding affinity to mouse PrPC by surface plasmon resonance. Background: Surface plasmon resonance follows binding to a sensor surface in real time, without labels.
Series [4] can be described thus: Cytotoxicity against mouse GT1-7 cells at 2 uM. The series is classed as cell-based. The settings on record: gt1-7, 2 µM.
For series [5], the species on record is Mus musculus. The experiment in a line: Effect on PrPc expression level in mouse GT1-7 at 2 uM after 3 days by Western blot method.

Usually IC50 stands for the point on the concentration scale where inhibition reaches its midpoint.

Active and inactive are the calls of the source. The calls are words filed in the database; no cut-off is given here.

In the case of `O=C(CN1CC[C@H](O)C1)Nc1ccc(Cc2ccc(NC(=O)CN3CC[C@H](O)C3)cc2)cc1`, in the series with GT1-7, the Activity amounted to 90%.

Regarding `O=C(CN1CCCCCC1)Nc1ccc(Cc2ccc(NC(=O)CN3CCCCCC3)cc2)cc1`, in the series on GT1-7, the Activity was 29%. Further, the outcome in the series filed under Mus musculus [1] was inactive. In the case of `Nc1ccccc1Sc1nc(N)c(N)c(-c2ccco2)c1N`, in the series on GT1-7, the result was inactive.

As for `O=C(CN1CCCC1)Nc1ccc(C(=O)c2ccc(NC(=O)CN3CCCC3)cc2)cc1`, the Activity in the series with GT1-7 is 24%. The result in the series filed under Mus musculus [1] was inactive. As to `O=C(CN1CCCC1)Nc1ccc(Cc2ccc(NC(=O)CN3CCCC3)c(Cl)c2)cc1Cl`, the Activity in the series on GT1-7 was determined as 38%. Still for that read-out and setting: to `COC(=O)[C@H]1CCCN1CC(=O)Nc1ccc(Cc2ccc(NC(=O)CN3CCC[C@@H]3C(=O)OC)cc2)cc1` belongs 112%; to `O=C(CN1CCCC1)Nc1ccc(Cc2ccc(NC(=O)CN3CC[C@@H](O)C3)cc2)cc1`, 43%. On the same count and under the same terms, next, `CC(=O)Nc1ccc(Cc2ccc(NC(=O)CN3CCCC3)cc2)cc1`: 91%; `Nc1ccc(/N=N/c2ccccc2)c(N)c1`: “inactive”.

As to `COc1ccccc1C(c1ccc(NC(=O)CN2CCCC2)cc1)c1ccc(NC(=O)CN2CCCC2)cc1`, the IC50 in series [2] was 580 nM. In the case of `O=C(CNC1CCCC1)Nc1ccc(Cc2ccc(NC(=O)CNC3CCCC3)cc2)cc1`, the Activity in the series with GT1-7 was 26%.

With `O=C(CN1CCCC1)Nc1ccc(Cc2ccc(NC(=O)CN3CCCC3)cc2)cc1`, in series [2], the IC50 is 1400 nM. In addition, the Activity in the series on GT1-7 stood at 25%. Besides, the RU in the series filed under Mus musculus [3] was determined as 15.

In the case of `CC(C)(c1ccc(NC(=O)CN2CCCC2)cc1)c1ccc(C(C)(C)c2ccc(NC(=O)CN3CCCC3)cc2)cc1`, the IC50 in series [2] was determined as 690 nM. Regarding `O=C(CN1CCCC1)Nc1ccc(CCc2ccc(NC(=O)CN3CCCC3)cc2)cc1`, the Activity in the series on GT1-7 was 40%.

Take `CN(C)CC(=O)Nc1ccc(Cc2ccc(NC(=O)CN(C)C)cc2)cc1`: the Activity in the series with GT1-7 worked out at 58%.

For `O=C(CN1CC[C@@H](O)C1)Nc1ccc(Cc2ccc(NC(=O)CN3CC[C@@H](O)C3)cc2)cc1`, the Activity with GT1-7 came to 108%. On to `Nc1c(/N=N/c2ccc(-c3ccc(/N=N/c4cc(S(=O)(=O)O)c5ccccc5c4N)cc3)cc2)cc(S(=O)(=O)O)c2ccccc12` [CONGO RED], for which the IC50 in series [2] was 5500 nM. Turning to `O=C(Nc1ccc(Cc2ccc(NC(=O)[C@@H]3CCCN3)cc2)cc1)[C@@H]1CCCN1`, in the series on GT1-7, the Activity was 25%.

With `O=C(CN1CCCC1)Nc1ccc(Cc2ccc(NC(=O)CN3CCC[C@@H]3CO)cc2)cc1`, the Activity with GT1-7 stood at 44%. The result in the series listed under Mus musculus [1] was inactive.

`O=C(CN1C(=O)CCC1=O)Nc1ccc(Cc2ccc(NC(=O)CN3C(=O)CCC3=O)cc2)cc1`: the Activity in the series with GT1-7 was 90%. `COC(=O)[C@@H]1CCCN1CC(=O)Nc1ccc(Cc2ccc(NC(=O)CN3CCC[C@H]3C(=O)OC)cc2)cc1`: in the series on GT1-7, the Activity amounted to 61%.

With `CN(C)[C@H]1CCN(CC(=O)Nc2ccc(Cc3ccc(NC(=O)CN4CC[C@H](N(C)C)C4)cc3)cc2)C1`, the Activity with GT1-7 stood at 34%. Besides, the outcome in the series listed under Mus musculus [1] was inactive.

As for `O=C(CN1CCCC1)Nc1ccc(Cc2cccc(NC(=O)CN3CCCC3)c2)cc1`, the Activity in the series on GT1-7 is 19%. For the same compound, the outcome in the series filed under Mus musculus [1] was inactive. Take `O=C(CN1CCCC1)Nc1cccc2c(NC(=O)CN3CCCC3)cccc12`: in the series on GT1-7, the Activity is 110%.

Consider `COc1cc(-c2ccc(NC(=O)CN3CCCC3)c(OC)c2)ccc1NC(=O)CN1CCCC1`, for which the Activity in the series on GT1-7 was 42%. The same measure, in the same setting: to `O=C(CN1CCCC1)Nc1ccc2c(c1)Cc1cc(NC(=O)CN3CCCC3)ccc1-2` belongs 45%; to `CC(C)(C(=O)Nc1ccc(Cc2ccc(NC(=O)C(C)(C)N3CCCC3)cc2)cc1)N1CCCC1`, 45%. Still for that read-out and setting: to `O=C(CN1CCCC1)Nc1ccc(Cc2ccc(NC(=O)CN3CC[C@H](O)C3)cc2)cc1` belongs 47%; to `O=C(CN1CCCC1)NCCc1ccc(NC(=O)CN2CCCC2)cc1`, 86%; to `O=C(Cn1cccn1)Nc1ccc(Cc2ccc(NC(=O)Cn3cccn3)cc2)cc1`, 106%. Take `O=C(CN1CCCC1)Nc1ccc(C(c2ccc(NC(=O)CN3CCCC3)cc2)C2CCCCCC2)cc1`: in series [2], the IC50 turned out to be 510 nM. Besides, the Activity entry in series [4] was “Non-toxic”. In the series listed under Mus musculus [5], the outcome was inactive. Regarding `CC(C)(c1ccc(NC(=O)CN2CCCC2)cc1)c1cccc(C(C)(C)c2ccc(NC(=O)CN3CCCC3)cc2)c1`, the IC50 in series [2] turned out to be 830 nM. Take `CCN(CC)CC(=O)Nc1ccc(Cc2ccc(NC(=O)CN(CC)CC)cc2)cc1`: in the series with GT1-7, the Activity was determined as 23%. In addition, the result in the series listed under Mus musculus [1] was inactive. As to `O=C(CN1CCCC1)Nc1ccc(Oc2ccc(NC(=O)CN3CCCC3)cc2)cc1`, in the series with GT1-7, the Activity worked out at 35%. For `CN(C)[C@@H]1CCN(CC(=O)Nc2ccc(Cc3ccc(NC(=O)CN4CC[C@@H](N(C)C)C4)cc3)cc2)C1`, the Activity in the series with GT1-7 amounted to 31%. The outcome in the series listed under Mus musculus [1] was inactive. Consider `O=C(CN1CCCC1)Nc1ccc(Cc2ccc(NC(=O)CN3CCOCC3)cc2)cc1`, for which the Activity in the series with GT1-7 came out at 77%. Same read-out and setting: to `Nc1ccc(Cc2ccc(N)cc2)cc1` belongs 86%; to `Nc1ccc(Cc2ccc(NC(=O)CN3CCCC3)cc2)cc1`, 75%. Take `Cc1cc(Cc2cc(C)c(NC(=O)CN3CCCC3)c(C)c2)cc(C)c1NC(=O)CN1CCCC1`: in the series with GT1-7, the Activity worked out at 22%. The result in the series listed under Mus musculus [1] was inactive. Taken in the same sequence, the figures for `O=C(CN1CCCC1)Nc1ccc(Sc2ccc(NC(=O)CN3CCCC3)cc2)cc1` were 22% and “inactive”. Taken in the same sequence, the figures for `O=C(CN1CCCC1)Nc1cccc(Cc2cccc(NC(=O)CN3CCCC3)c2)c1` were 20% and “inactive”. Taken in the same sequence, the figures for `O=C(CN1CCCC1)Nc1ccc(S(=O)(=O)c2ccc(NC(=O)CN3CCCC3)cc2)cc1` were 17% and “inactive”. With `O=C(CN1CCC[C@H]1CO)Nc1ccc(Cc2ccc(NC(=O)CN3CCC[C@H]3CO)cc2)cc1`, the Activity with GT1-7 was found to be 91%.

With `O=C(Nc1ccc(Cc2ccc(NC(=O)c3ccccn3)cc2)cc1)c1ccccn1`, in the series with GT1-7, the Activity is 122%. `O=C(CN1CCCC1)Nc1ccc(NC(=O)CN2CCCC2)cc1`: the Activity in the series with GT1-7 worked out at 88%. Same read-out and setting: next, `O=C(CN1CC[C@H](F)C1)Nc1ccc(Cc2ccc(NC(=O)CN3CC[C@H](F)C3)cc2)cc1`: 112%. For `O=C(CN(C1CCCCC1)C1CCCCC1)Nc1ccc(Cc2ccc(NC(=O)CN(C3CCCCC3)C3CCCCC3)cc2)cc1`, the Activity in the series on GT1-7 worked out at 106%. The same measure, in the same setting: to `O=C(CN1CCCC1)Nc1ccccc1NC(=O)CN1CCCC1` belongs 82%.

As to `CCN(CC)CCCC(C)Nc1c2ccc(Cl)cc2nc2ccc(OC)cc12` (configuration not stated) [QUINACRINE], the IC50 in series [2] was found to be 1100 nM. As for `CN(C(=O)CN1CCCC1)c1ccc(Cc2ccc(N(C)C(=O)CN3CCCC3)cc2)cc1`, the Activity with GT1-7 was 77%.

For `NCC(=O)Nc1ccc(Cc2ccc(NC(=O)CN)cc2)cc1`, the Activity in the series with GT1-7 came to 102%. On the same count and under the same terms, next, `NCC(=O)Nc1ccc(Cc2ccc(NC(=O)CN3CCCC3)cc2)cc1`: 62%. Regarding `O=C(Cn1ccnc1)Nc1ccc(Cc2ccc(NC(=O)Cn3ccnc3)cc2)cc1`, the Activity in the series with GT1-7 amounted to 167%. Regarding `O=C(CN1CCCC1)Nc1ccc(C(c2ccc(F)cc2)(c2ccc(NC(=O)CN3CCCC3)cc2)C(F)(F)F)cc1`, in series [2], the IC50 is 510 nM. In addition, the Activity result in series [4] is given as “Non-toxic”. In addition, the result in the series listed under Mus musculus [5] was inactive. In addition, the RU in the series listed under Mus musculus [3] came to 32. On to `CCCCNCC(=O)Nc1ccc(Cc2ccc(NC(=O)CNCCCC)cc2)cc1`, for which the Activity with GT1-7 turned out to be 24%. For `O=C(CN1CCCC1)Nc1ccc(Cc2ccc(NC(=O)CN3CCC[C@H]3CO)cc2)cc1`, the Activity with GT1-7 amounted to 47%. Moreover, the outcome in the series filed under Mus musculus [1] was inactive.

Take `O=C(CC1CCCC1)Nc1ccc(Cc2ccc(NC(=O)CC3CCCC3)cc2)cc1`: the Activity in the series on GT1-7 came out at 86%.

Take `CC(c1ccccc1)(c1ccc(NC(=O)CN2CCCC2)cc1)c1ccc(NC(=O)CN2CCCC2)cc1`: in series [2], the 50% inhibitory concentration (IC50) came to 660 nM.

As for `c1cc(NCCN2CCCC2)ccc1Cc1ccc(NCCN2CCCC2)cc1`, the Activity in the series with GT1-7 stood at 28%.

As for `O=C(CN1CCCCC1)Nc1ccc(Cc2ccc(NC(=O)CN3CCCC3)cc2)cc1`, in the series with GT1-7, the Activity was 29%. For the same compound, the result in the series listed under Mus musculus [1] was inactive. Consider `CC(=O)Nc1ccc(Cc2ccc(NC(C)=O)cc2)cc1`, for which the Activity in the series with GT1-7 stood at 84%.

On to `CC(C)N(CC(=O)Nc1ccc(Cc2ccc(NC(=O)CN(C(C)C)C(C)C)cc2)cc1)C(C)C`, for which the Activity with GT1-7 was determined as 20%. Same read-out and setting: to `CCCN(CCC)CC(=O)Nc1ccc(Cc2ccc(NC(=O)CN(CCC)CCC)cc2)cc1` belongs 48%; to `O=C(CN1CCC[C@H]1C(F)(F)F)Nc1ccc(Cc2ccc(NC(=O)CN3CCC[C@H]3C(F)(F)F)cc2)cc1`, 85%. Turning to `CC(C)(C)C(c1ccc(NC(=O)CN2CCCC2)cc1)c1ccc(NC(=O)CN2CCCC2)cc1`, the IC50 in series [2] was 790 nM. In addition, the outcome in the series filed under Mus musculus [5] was inactive. As for `O=C(CN1CCCC1)Nc1ccc(C(O)c2ccc(NC(=O)CN3CCCC3)cc2)cc1`, in the series on GT1-7, the Activity is 62%. `O=C(CN1CC[C@@H](F)C1)Nc1ccc(Cc2ccc(NC(=O)CN3CC[C@@H](F)C3)cc2)cc1`: the Activity in the series with GT1-7 was determined as 93%. On the same count and under the same terms, next, `O=C(CN1CCC[C@@H]1CO)Nc1ccc(Cc2ccc(NC(=O)CN3CCC[C@@H]3CO)cc2)cc1`: 75%; `O=C(CN1CCOCC1)Nc1ccc(Cc2ccc(NC(=O)CN3CCOCC3)cc2)cc1`: 93%. As for `O=C(CN1CCCCC1)Nc1ccc(Cc2ccc(NC(=O)CN3CCCCC3)cc2)cc1`, the Activity in the series on GT1-7 stood at 24%. For the same compound, the outcome in the series listed under Mus musculus [1] was inactive.
